EC50 data for 14 compounds are collected here from patent US10421743B2, “Tetrahydroisoquinolines as PRMT5 inhibitors” (CTXT PTY LTD, priority 2016, dated 2019).

For test [1], the target named is Full-length (FL)-PRMT5-MEP50 enzyme complex (Homo sapiens (Human), UniProt O14744). As to the kind of experiment: PRMT5-MEP50 Enzyme Methylation Assay (SAMDI). The format is biochemical. The following applies: 0.5 nM PRMT5-MEP50, 75 nM biotinylated H4R3(Me1) peptide, 15 μM SAM, 150 minutes at 37° C. The method, then:
PRMT5-MEP50 Enzyme Methylation Assay
PRMT5/MEP50 biochemical assay is a direct measurement of the methylation activity of the enzyme complex on a short peptide substrate derived from the N-terminus of H4 histone. Methylation experiment is performed with recombinant protein. The assessment of inhibitory effect (IC50) of small molecules is measured by the effectiveness of the compounds to inhibit this reaction.
In this assay, the potency (IC50) of each compound was determined from a twenty-point (1:2 serial dilution; top compound concentration of 100000 nM) titration curve using the following outlined procedure. To each well of a white ProxiPlus 384 well-plate, 100 nL of compound (1% DMSO in final assay volume of 10 μL) was dispensed, followed by the addition of 8 μL of 1× assay buffer (50 mM Bicine pH 8.0, 1 mM DTT, 0.004% Tween20, 0.01% BSA) containing 0.5 nM of Full-length (FL)-PRMT5-MEP50 enzyme complex (recombinant proteins from baculovirus-transfected Sf21 cells: FL-PRMT5; MW=[…] and FL-MEP50; MW=38614). Plates were sealed and placed in a 37° C. humidified chamber for 30 minutes pre-incubation with compounds. Subsequently, each reaction was initiated by the addition of 2 μL 1× assay buffer containing 75 nM biotinylated H4R3(Me1) peptide, and 15 μM S-(5′-Adenosyl)-L-Methionine Chloride (SAM). The final reaction in each well of 10 μL consists of 0.5 nM PRMT5-MEP50,75 nM biotinylated-peptide, and 15 μM SAM. Methylation reactions were allowed to proceed for 150 minutes in a sealed plate at 37° C. Reactions were immediately quenched by the addition of 1 μL of 10% formic acid. Plates were then frozen and shipped to SAMDI™ Tech Inc. to determine the percent conversion from […]. IC50 values were determined by 7 parameters biphasic fit model plotting the percent product conversion vs. (Log10) compound concentrations.

Test [2] relates to PRMT5 (symmetric dimethylation of arginine (SDMA) in MCF-7 cells). In words: PRMT5 Cell Target Engagement (TE) Assay (SDMA, high content imaging). The format is cell-based. The following applies: Homo sapiens, MCF7, 72 h, treated for 3 days, top compound concentration of 10000 nM. The source says: PRMT5 Cell Target Engagement (TE) Assay
The PRMT5 TE assay is a biomarker assay for identifying compounds that inhibit symmetric dimethylation of arginine (SDMA) of PRMT5 substrates. This assay detects symmetrically dimethylated nuclear proteins using high content imaging technology. Detection of the expression of symmetrically dimethylated nucleo proteins is through a mixture of primary rabbit monoclonal antibodies to SDMA (CST 13222), which in turn recognized by an Alexafluor 488 dye-conjugated anti-rabbit IgG secondary antibody. The IN Cell Analyzer 2200 measures nuclear Alexafluor 488 fluorescent dye intensity that is directly related to the level of expression of symmetrically dimethylated nuclear proteins at the single cell level. Nuclear AF488 dye intensities are compared to the mean value for DMSO treated cells […] to report percent of inhibition for each compound-treated well.
In this assay, the cell potency (EC50) of each compound was determined from a ten point (1:3 serial dilution; top compound concentration of 10000 nM) titration curve using the following outlined procedure. Each well of a BD falcon collagen coated black/clear bottom 384-well plate was seeded with 4000 MCF-7 cells and allowed to attach for 5 hours. Media from cell plate was removed at 0.5 mm above the bottom of the plate and replaced with 30 μL of fresh media containing 1.2× compounds in 0.1% DMSO. Cells were treated for 3 days in 37° C. CO2 incubator. On day 3, cells were fixed with Cytofix, permeabilized with 0.4% Triton-X-100/Cytofix, and washed with D-PBS without Ca/Mg. Cells were blocked with Licor Odessey blocking reagent for one hour at room temperature, followed by incubation with anti-SDMA (1:1000) antibody at 4° C. overnight. 1° antibody was removed, followed by three washings with DPBS without Ca/Mg and 0.05% Tween20. Hoechst (5 μg/ml), Cell Mask deep stain (1:2000) and Alexa488-conjugated goat anti-rabbit IgG (2 μg/mL) was added for 1 hour at room temperature. A final washing step (three washes) was performed before sealing plate for imaging on In Cell Analyzer 2200. Images from analyzer were uploaded to Columbus (at WP) for image analysis. IC50 values were determined by 4 parameters robust fit of percent fluorescence units vs. (Log10) compound concentrations.

[3] abbreviates: second EC50 of biphasic fit, read-out: Enzyme Methylation Assay (EC50—2).
Setting [4] is: first EC50 of biphasic fit, read-out: Enzyme Methylation Assay (EC50—1).

Like-named read-outs stand apart in the source and are kept apart here.

Sequence of Full-length (FL)-PRMT5-MEP50 enzyme complex (O14744 whole entry): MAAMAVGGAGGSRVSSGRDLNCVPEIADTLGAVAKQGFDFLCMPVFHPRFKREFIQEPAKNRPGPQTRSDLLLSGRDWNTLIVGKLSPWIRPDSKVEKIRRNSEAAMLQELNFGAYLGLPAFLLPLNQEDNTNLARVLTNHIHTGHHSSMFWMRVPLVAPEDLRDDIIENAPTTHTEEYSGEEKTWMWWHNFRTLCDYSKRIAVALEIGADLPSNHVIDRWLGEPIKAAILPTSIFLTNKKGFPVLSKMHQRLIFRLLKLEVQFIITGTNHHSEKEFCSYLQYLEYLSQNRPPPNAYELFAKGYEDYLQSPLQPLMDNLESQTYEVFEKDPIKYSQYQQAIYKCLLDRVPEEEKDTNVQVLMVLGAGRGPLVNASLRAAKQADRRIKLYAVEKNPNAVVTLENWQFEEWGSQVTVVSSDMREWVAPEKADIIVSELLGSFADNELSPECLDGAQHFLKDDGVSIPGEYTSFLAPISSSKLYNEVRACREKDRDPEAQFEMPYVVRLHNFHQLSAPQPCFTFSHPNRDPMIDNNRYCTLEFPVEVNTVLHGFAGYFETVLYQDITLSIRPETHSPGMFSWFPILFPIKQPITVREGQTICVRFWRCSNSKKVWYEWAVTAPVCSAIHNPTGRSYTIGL
Sequence of Full-length (FL)-PRMT5-MEP50 enzyme complex (Q9BQA1 whole entry partner): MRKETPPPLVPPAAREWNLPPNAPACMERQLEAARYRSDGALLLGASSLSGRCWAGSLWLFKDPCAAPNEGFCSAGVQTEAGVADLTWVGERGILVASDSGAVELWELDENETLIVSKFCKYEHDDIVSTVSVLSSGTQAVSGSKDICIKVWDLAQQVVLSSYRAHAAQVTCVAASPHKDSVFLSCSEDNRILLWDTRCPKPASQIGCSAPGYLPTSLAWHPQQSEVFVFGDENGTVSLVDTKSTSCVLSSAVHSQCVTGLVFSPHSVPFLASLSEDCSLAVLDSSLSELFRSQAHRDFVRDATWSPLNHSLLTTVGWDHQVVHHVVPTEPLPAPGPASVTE

The term EC50 denotes the concentration that produces a half-maximal response. Take `O=C(NC[C@@H](O)[C@@H]1Cc2ccc(C(F)F)cc2CN1)c1ccc(C(=O)N2C3CCC2COC3)cc1` [Example 11]: the half-maximal effective concentration (EC50) in test [1] (Enzyme Methylation Assay (EC50—1, nM), first EC50 of biphasic fit) worked out at 0.93 nM; in test [1] (setting [3]) it was 451 nM; in test [2] it was 135 nM.
As for `CC(=O)N1CCC(Nc2cc(C(=O)NC[C@@H](O)[C@@H]3Cc4ccc(C(F)(F)F)cc4CN3)ncn2)CC1` [Example 15], the 50% effective concentration (EC50) was 23 nM in test [1] (setting [4]), 7230 nM in test [1] (setting [3]) and 2190 nM in test [2].
On to `COc1ccc2c(c1)CN[C@H]([C@H](O)CNC(=O)c1ccc(-c3ncc4n3CCCC4)cc1)C2` [Example 8], for which the concentration for a half-maximal effect (EC50) stood at 0.62 nM in test [1] (setting [4]), 225 nM in test [1] (setting [3]) and 80 nM in test [2].
For the compound `COc1ccc2c(c1)CN[C@H]([C@H](O)CNC(=O)c1ccccc1Cl)C2` [Example 14], the EC50 is 12 nM in test [1] (setting [4]), 4280 nM in test [1] (setting [3]) and 3200 nM in test [2].
Consider `CCOc1ncccc1C(=O)NC[C@@H](O)[C@@H]1Cc2ccc(OC)cc2CN1` [Example 13], for which the EC50 turned out to be 21 nM in test [1] (setting [4]), 8080 nM in test [1] (setting [3]) and 4660 nM in test [2].
In the case of `COc1ccc2c(c1)CN[C@H]([C@H](O)CNC(=O)c1cccnc1)C2` [Example 12], the values for the EC50 in test [1] (setting [4]), in test [1] (setting [3]) and in test [2] were 32 nM, 11600 nM and 4640 nM, respectively.
Take `CCOc1cc(-c2nnc(C3CC3)o2)ccc1C(=O)NC[C@@H](O)[C@@H]1Cc2ccc(OC)cc2CN1` [Example 6, 4-(5-cyclopropyl-1,3,4-oxadiazol-2-yl)-2-ethoxy-N-{(2R)-2-hydroxy-2-[(3S)-7-methoxy-1,2,3,4-tetrahydroisoquinolin-3-yl]ethyl}benzamide]: the EC50 is 2 nM in test [1] (setting [4]), 781 nM in test [1] (setting [3]) and 203 nM in test [2].
On to `CC(=O)N1CCC(Nc2cc(C(=O)NC[C@@H](O)[C@@H]3Cc4ccc(C#N)cc4CN3)ncn2)CC1` [Example 17], for which the EC50 in test [1] (setting [4]) was 180 nM; in test [1] (setting [3]), 34900 nM; in test [2], 10000 nM.
The matching figures for `COC(=O)N1CCC(Nc2cc(C(=O)NC[C@@H](O)[C@@H]3Cc4ccc(OC)cc4CN3)ccn2)CC1` [Example 18]: 0.79 nM, 185 nM and 19 nM.
As for `COc1ccc2c(c1)CN[C@H]([C@H](O)CNC(=O)c1cc(NC3COC3)ncn1)C2` [Example 4, N—((R)-2-hydroxy-2-((S)-7-methoxy-1,2,3,4-tetrahydroisoquinolin-3-yl)ethyl)-6-(oxetan-3-ylamino)pyrimidine-4-carboxamide], the EC50 in test [1] (setting [4]) stood at 21 nM; in test [1] (setting [3]) it was 8430 nM.
Consider `COc1ccc2c(c1)CN[C@H]([C@H](O)CNC(=O)c1ccc(-c3ncnn3C3CC3)cc1)C2` [Example 9], for which the half-maximal effective concentration (EC50) in test [1] (setting [4]) was 0.56 nM; in test [1] (setting [3]) it was 334 nM; in test [2], 70 nM.
For the compound `CCOc1cc(-c2nnc(C)o2)ccc1C(=O)NC[C@@H](O)[C@@H]1Cc2ccc(OC)cc2CN1` [Example 5, 2-ethoxy-N-{(2R)-2-hydroxy-2-[(3S)-7-methoxy-1,2,3,4-tetrahydroisoquinolin-3-yl]ethyl}-4-(5-methyl-1,3,4-oxadiazol-2-yl)benzamide], the EC50 in test [1] (setting [4]) came to 2 nM; in test [1] (setting [3]), 890 nM; in test [2], 2150 nM.
Taken in the same sequence, the figures for `COc1ccc2c(c1)CN[C@H]([C@H](O)CNC(=O)c1ccc(-c3nnc(C(C)(C)C)o3)cc1)C2` [Example 7] were 3 nM, 994 nM and 167 nM.
For `CCc1ccc2c(c1)CN[C@H]([C@H](O)CNC(=O)c1cc(NC3CCN(C(C)=O)CC3)ncn1)C2` [Example 16], the EC50 in test [1] (setting [4]) is 7 nM; in test [1] (setting [3]), 3700 nM; in test [2], 846 nM.
